Source: PMC8373216, “Development and Preclinical Evaluation of New Inhaled Lipoglycopeptides for the Treatment of Persistent Pulmonary Methicillin-Resistant Staphylococcus aureus Infections” (Antimicrobial Agents and Chemotherapy, 2021)
≈ marks a conversion by molar mass, not a printed value. Read-outs that look alike come from different tables or passages of the source.

Legend:
[1] = test system: S. aureus; experiment: Expanded panel broth microdilution MIC/MBC; conditions: Staphylococcus aureus
[2] = test system: E. cloacae; experiment: Expanded panel broth microdilution MIC; assay type: cell-based; conditions: Enterobacter cloacae, read-out: MIC
[3] = test system: Staphylococcus hominis; experiment: Expanded panel broth microdilution MIC; assay type: cell-based
[4] = test system: Streptococcus agalactiae; experiment: Expanded panel broth microdilution MIC/MBC; assay type: cell-based; conditions: for MIC: Streptococcus agalactiae
[5] = test system: Peptostreptococcus micros; experiment: Expanded panel broth microdilution MIC; assay type: cell-based
[6] = test system: Enterococcus faecalis; experiment: Expanded panel broth microdilution MIC/MBC; assay type: cell-based
[7] = test system: Pseudomonas aeruginosa; experiment: Expanded panel broth microdilution MIC; assay type: cell-based
[8] = test system: H. parainfluenzae; experiment: Expanded panel broth microdilution MIC; assay type: cell-based; conditions: Haemophilus parainfluenzae; H. parainfluenzae MMX 2529; read-out: MIC
[9] = test system: Streptococcus oralis; experiment: Expanded panel broth microdilution MIC; assay type: cell-based
[10] = test system: Streptococcus dysgalactiae; experiment: Expanded panel broth microdilution MIC/MBC; assay type: cell-based; conditions: for MIC: Streptococcus dysgalactiae
[11] = test system: Streptococcus anginosus; experiment: Expanded panel broth microdilution MIC/MBC; assay type: cell-based; conditions: for MIC: Streptococcus anginosus, read-out: MIC
[12] = test system: K. pneumoniae; experiment: Expanded panel broth microdilution MIC; assay type: cell-based
[13] = test system: P. vulgaris; experiment: Expanded panel broth microdilution MIC; assay type: cell-based; conditions: Proteus vulgaris; P. vulgaris MMX 9373; read-out: MIC
[14] = test system: MRSA ATCC BAA 1556 (USA300) biofilm; experiment: Static MRSA biofilm killing, plastic microtiter plate, MEM
[15] = test system: Streptococcus constellatus; experiment: Expanded panel broth microdilution MIC; assay type: cell-based
[16] = test system: Haemophilus influenzae; experiment: Expanded panel broth microdilution MIC; assay type: cell-based; conditions: for MIC: read-out: MIC
[17] = test system: S. marcescens; experiment: Expanded panel broth microdilution MIC; assay type: cell-based; conditions: Serratia marcescens, ATCC43862; S. marcescens ATCC 43862; read-out: MIC

Q: Which MIC ([1]; NRS13 / VISA, S. aureus NRS13, VISA) does the source give for CCCCCCCCCCNCCN[C@@]1(C)C[C@H](O[C@H]2[C@H](Oc3c4cc5cc3Oc3ccc(cc3Cl)[C@@H](O)[C@@H](NC(=O)[C@@H](CC(C)C)NC)C(=O)N[C@@H](CC(N)=O)C(=O)N[C@H]5C(=O)N[C@H]3C(=O)N[C@H](C(=O)N[C@H](C(=O)O)c5cc(O)cc(O)c5-c5cc3ccc5O)[C@H](O)c3ccc(c(Cl)c3)O4)O[C@H](CO)[C@@H](O)[C@@H]2O)O[C@@H](C)[C@H]1O [RV40, N-decylaminoethylvancomycin] here?
A: 0.03 µg/mL (≈ 0.0184 µM)

Q: And the MIC ([1]; NRS22 / VISA, S. aureus NRS22, VISA)?
A: 0.06 µg/mL (≈ 0.0368 µM)

Q: And the MIC ([1]; NRS23, S. aureus NRS23, hVISA)?
A: 0.03 µg/mL (≈ 0.0184 µM)

Q: And the MIC ([1]; NRS52 / VISA, S. aureus NRS52, VISA)?
A: 0.03 µg/mL (≈ 0.0184 µM)

Q: And the MIC ([1]; VISA, read-out: MIC (median), S. aureus VISA, 5 isolates)?
A: 0.06 µg/mL (≈ 0.0368 µM)

Q: What about the MIC ([1]; read-out: MIC (median), S. aureus hVISA, 2 isolates) of the same molecule?
A: 0.023 µg/mL (≈ 0.0141 µM)

Q: And the MIC ([2]; ATCC49141, E. cloacae ATCC 49141)?
A: > 64 µg/mL

Q: And the MIC ([2]; ATCCBAA1143, E. cloacae ATCC BAA-1143, AmpC)?
A: > 64 µg/mL

Q: And the MIC ([3]; ATCC27844, S. hominis ATCC 27844, read-out: MIC)?
A: 0.015 µg/mL (≈ 0.00919 µM)

Q: And the MIC ([3]; S. hominis, 1 isolate, read-out: MIC)?
A: 0.015 µg/mL (≈ 0.00919 µM)

Q: What about the “MIC:MBC” value ([4]; S. agalactiae, MBC on one organism) of the same molecule?
A: 1

Q: What about the MIC ([4]; ATCC13813, S. agalactiae ATCC 13813, read-out: MIC) of the same molecule?
A: 0.008 µg/mL (≈ 0.0049 µM)

Q: What about the MIC ([4]; S. agalactiae MMX 4088, read-out: MIC) of the same molecule?
A: 0.008 µg/mL (≈ 0.0049 µM)

Q: What about the MIC ([4]; S. agalactiae MMX 4115, ermR, read-out: MIC) of the same molecule?
A: 0.008 µg/mL (≈ 0.0049 µM)

Q: And the MIC ([4]; S. agalactiae ermR, 1 isolate, read-out: MIC)?
A: 0.008 µg/mL (≈ 0.0049 µM)

Q: What about the MIC ([4]; S. agalactiae, 2 isolates, read-out: MIC (median)) of the same molecule?
A: 0.008 µg/mL (≈ 0.0049 µM)

Q: What about the MIC ([5]; P. micros, 1 isolate) of the same molecule?
A: 0.06 µg/mL (≈ 0.0368 µM)

Q: And the MIC ([5]; Parvimonas micra, P. micros MMX 3546, read-out: MIC)?
A: 0.06 µg/mL (≈ 0.0368 µM)

Q: What about the “MIC:MBC” value ([6]; E. faecalis VSE, MBC on one organism) of the same molecule?
A: >8

Q: And the “MIC:MBC” value ([6]; E. faecalis VanA VRE)?
A: 8

Q: What about the MIC ([6]; E. faecalis VanA VRE, 1 isolate) of the same molecule?
A: 0.5 µg/mL (≈ 0.306 µM)

Q: What about the MIC ([6]; Enterococcus faecalis, ATCC29212, E. faecalis ATCC 29212, VSE, read-out: MIC) of the same molecule?
A: 0.015 µg/mL (≈ 0.00919 µM)

Q: What about the MIC ([6]; Enterococcus faecalis, E. faecalis MMX 1086, VanA VRE, read-out: MIC) of the same molecule?
A: 0.5 µg/mL (≈ 0.306 µM)

Q: And the MIC ([6]; Enterococcus faecalis, E. faecalis MMX 4176, VSE, read-out: MIC)?
A: 0.03 µg/mL (≈ 0.0184 µM)

Q: And the MIC ([6]; Enterococcus faecalis, E. faecalis VSE, 2 isolates, read-out: MIC (median))?
A: 0.023 µg/mL (≈ 0.0141 µM)

Q: What about the MIC [7] of the same molecule?
A: > 64 µg/mL

Q: What about the MIC ([7]; ATCC27853, P. aeruginosa ATCC 27853, read-out: MIC) of the same molecule?
A: > 64 µg/mL

Q: And the MIC ([7]; P. aeruginosa MMX 2562, MDR, read-out: MIC)?
A: > 64 µg/mL

Q: What about the MIC [8] of the same molecule?
A: 16 µg/mL (≈ 9.8 µM)

Q: What about the MIC ([9]; S. oralis MGS, 1 isolate) of the same molecule?
A: 0.015 µg/mL (≈ 0.00919 µM)

Q: What about the MIC ([9]; Streptococcus oralis, S. oralis (MGS) MMX 5821, read-out: MIC) of the same molecule?
A: 0.015 µg/mL (≈ 0.00919 µM)

Q: What about the “MIC:MBC” value ([10]; S. dysgalactiae, MBC on one organism) of the same molecule?
A: 1

Q: What about the MIC ([10]; S. dysgalactiae MMX 5121, read-out: MIC) of the same molecule?
A: 0.008 µg/mL (≈ 0.0049 µM)

Q: What about the MIC ([10]; S. dysgalactiae MMX 5123, read-out: MIC) of the same molecule?
A: 0.12 µg/mL (≈ 0.0735 µM)

Q: What about the MIC ([10]; S. dysgalactiae MMX 5124, read-out: MIC) of the same molecule?
A: 0.015 µg/mL (≈ 0.00919 µM)

Q: What about the MIC ([10]; S. dysgalactiae, 3 isolates, read-out: MIC (median)) of the same molecule?
A: 0.015 µg/mL (≈ 0.00919 µM)

Q: What about the “MIC:MBC” value ([11]; S. anginosus AGS) of the same molecule?
A: >8

Q: And the MIC ([11]; ATCC33397, S. anginosus (AGS) ATCC 33397)?
A: 0.015 µg/mL (≈ 0.00919 µM)

Q: And the MIC ([11]; S. anginosus AGS, 1 isolate)?
A: 0.015 µg/mL (≈ 0.00919 µM)

Q: And the MIC ([12]; K. pneumoniae MMX 4679, KPC-2)?
A: > 64 µg/mL

Q: And the MIC ([12]; Klebsiella pneumoniae, K. pneumoniae MMX 2542, read-out: MIC)?
A: > 64 µg/mL

Q: What about the MIC [13] of the same molecule?
A: > 64 µg/mL

Q: What about the “Reduction in MRSA biofilm titer versus control” value ([14]; doses 1 to 10 μg/ml) of the same molecule?
A: ~3 log10 CFU/ml

Q: And the “Concentrations with statistically significant reduction versus control biofilm” value ([14]; two-way ANOVA, Bonferroni)?
A: ≥ 1.25 µg/mL

Q: And the MIC ([15]; S. constellatus AGS, 1 isolate)?
A: 0.008 µg/mL (≈ 0.0049 µM)

Q: What about the MIC ([15]; Streptococcus constellatus, S. constellatus (AGS) MMX 5677, read-out: MIC) of the same molecule?
A: 0.008 µg/mL (≈ 0.0049 µM)

Q: And the MIC range [16]?
A: 16 to 32 µg/mL

Q: What about the MIC ([16]; ATCC49247, H. influenzae ATCC 49247, BL-) of the same molecule?
A: 64 µg/mL (≈ 39.2 µM)

Q: And the MIC ([16]; H. influenzae MMX 7988, BL+)?
A: 32 µg/mL (≈ 19.6 µM)

Q: What about the MIC [17] of the same molecule?
A: > 64 µg/mL
